Reference: patent US8124624B2, “Substituted sulfonamide compounds” (Gruenenthal GmbH, priority 2008, dated 2012)
Counter-ions that a name gives are not always drawn.

What was measured:
[1] = biological target: T1, human B1R (Homo sapiens, UniProt P46663); experiment: FLIPR Ca2+ influx assay, B1R antagonism, human (hB1R CHO K1 cells); assay type: cell-based; conditions: test substance 10 μM, CHO K1 cells stably transfected with human B1R, agonist Lys-Des-Arg9-bradykinin at EC80, % inhibition compared with maximum achievable inhibition; for inhibition at 10 µM: read-out: B1R antagonism, human [10 μM] % inhibition
T1 construct: expressed in transfected cells; host or cells: CHO K1 cells (hB1R cells)
T1 sequence (P46663 1-353): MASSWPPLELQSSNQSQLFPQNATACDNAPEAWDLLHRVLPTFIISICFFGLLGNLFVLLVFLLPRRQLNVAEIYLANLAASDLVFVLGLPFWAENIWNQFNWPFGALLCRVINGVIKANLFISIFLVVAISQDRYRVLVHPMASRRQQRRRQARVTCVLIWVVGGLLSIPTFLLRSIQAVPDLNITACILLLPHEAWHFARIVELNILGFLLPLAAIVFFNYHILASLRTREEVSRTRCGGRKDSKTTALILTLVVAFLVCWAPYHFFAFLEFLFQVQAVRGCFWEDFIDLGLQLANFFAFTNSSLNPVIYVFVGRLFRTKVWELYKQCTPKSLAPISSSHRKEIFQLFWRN
Procedure, shortened: (§1)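 CHO K1 cells stably expressing human or rat B1R were loaded with Fluo-4, and Ca^2+ fluorescence was read on a FLIPR. After 10–20 min with test substance, agonist was added at EC80: Lys-Des-Arg^9-bradykinin for hB1R, Des-Arg^9-bradykinin for rB1R. % inhibition is relative to maximal inhibition; IC50 from multiple concentrations, n=2–3, N≥2.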

[2] = biological target: T2, B1R of the rat (Rattus norvegicus, UniProt P97583); experiment: FLIPR Ca2+ influx assay, B1R antagonism, rat (rB1R CHO K1 cells); assay type: cell-based; conditions: test substance 10 μM, CHO K1 cells stably transfected with rat B1R, agonist Des-Arg9-bradykinin at EC80, % inhibition compared with maximum achievable inhibition; for inhibition at 10 µM: read-out: B1R antagonism, rat [10 μM] % inhibition
T2 construct: expressed in transfected cells; host or cells: CHO K1 cells (rB1R cells)
T2 sequence (P97583 1-337): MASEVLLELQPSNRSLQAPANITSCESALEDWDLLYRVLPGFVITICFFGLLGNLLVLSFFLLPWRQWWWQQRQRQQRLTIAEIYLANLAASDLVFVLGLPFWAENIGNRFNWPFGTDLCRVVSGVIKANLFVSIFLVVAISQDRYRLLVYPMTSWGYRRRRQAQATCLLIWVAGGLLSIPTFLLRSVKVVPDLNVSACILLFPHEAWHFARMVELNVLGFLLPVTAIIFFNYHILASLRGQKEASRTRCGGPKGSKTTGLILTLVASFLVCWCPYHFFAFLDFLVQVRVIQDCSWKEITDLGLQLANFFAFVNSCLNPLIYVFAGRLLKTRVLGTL
Procedure, shortened: as §1

Row | Compound | B1R antagonism, human [10 μM] % inhibition [1] | B1R antagonism, rat [10 μM] % inhibition [2] | inhibition at 10 µM [1] | inhibition at 10 µM [2]
1 | COc1cc(C)c(S(=O)(=O)N(CCOCC(=O)N2CCC(CCCN3CCCC3)(c3cccnc3)CC2)Cc2ccccc2)c(C)c1 [Example 38, N-Benzyl-4-Methoxy-2,6-dimethyl-N-[2-[2-oxo-2-[4-pyridin-3-yl-4-(3-pyrrolidin-1-yl-propyl)-piperidin-1-yl]-ethoxy]-ethyl]-benzenesulfonic acid amide] | 100% | 101% |  | 
2 | O=C(COCC1CCCCN1S(=O)(=O)c1ccccc1C(F)(F)F)N1CCC(CCCN2CCCC2)(c2cccnc2)CC1 (stereo not shown) [Example 41, 1-[4-Pyridin-3-yl-4-(3-pyrrolidin-1-yl-propyl)-piperidin-1-yl]-2-[[1-[[2-(trifluoromethyl)-phenyl]sulfonyl]-piperidin-2-yl]-methoxy]-ethanone] |  |  | 100% | 104%
3 | COc1cc(C)c(S(=O)(=O)N(CCOCC(=O)N2CCC(CCCN3CCCC3)(c3cccnc3)CC2)c2ccccc2)c(C)c1 [Example 48, 4-Methoxy-2,6-Dimethyl-N-[2-[2-oxo-2-[4-pyridin-3-yl-4-(3-pyrrolidin-1-yl-propyl)-piperidin-1-yl]-ethoxy]-ethyl]-N-phenyl-benzenesulfonic acid amide] |  |  | 100% | 103%
4 | COc1cc(C)c(S(=O)(=O)N2c3ccccc3OCC2COCC(=O)N2CCC(CCCN3CCCC3)(c3cccnc3)CC2)c(C)c1 (stereo not shown) [Example 68, 2-[[4-[(4-Methoxy-2,6-dimethyl-phenyl)sulfonyl]-3,4-dihydro-2H-[1,4]benzoxazin-3-yl]-methoxy]-1-[4-pyridin-3-yl-4-(3-pyrrolidin-1-yl-propyl)-piperidin-1-yl]-ethanone] | 100% | 101% |  | 
5 | Cc1cccc(Cl)c1S(=O)(=O)N1c2ccccc2OCC1COCC(=O)N1CCC(CCCN2CCCC2)(c2cccnc2)CC1 (stereo not shown) [Example 72, 2-[[4-[(2-Chloro-6-methyl-phenyl)sulfonyl]-3,4-dihydro-2H-[1,4]benzoxazin-3-yl]-methoxy]-1-[4-pyridin-3-yl-4-(3-pyrrolidin-1-yl-propyl)-piperidin-1-yl]-ethanone] |  |  | 100% | 103%
6 | Cc1cccc(Cl)c1S(=O)(=O)N(CCOCC(=O)N1CCC(CCCN2CCCC2)(c2cccc(Cl)c2)CC1)C1CC1 [Example 77, 2-Chloro-N-[2-[2-[4-(3-chlorophenyl)-4-(3-pyrrolidin-1-yl-propyl)-piperidin-1-yl]-2-oxo-ethoxy]-ethyl]-N-cyclopropyl-6-methyl-benzenesulfonic acid amide] |  |  | 100% | 92%
7 | Cc1cccc(Cl)c1S(=O)(=O)N(CCOCC(=O)N1CCC(CCCN2CCCC2)(c2cccc(C(F)(F)F)c2)CC1)C1CC1 [Example 78, 2-Chloro-N-cyclopropyl-6-methyl-N-[2-[2-oxo-2-[4-(3-pyrrolidin-1-yl-propyl)-4-[3-(trifluoromethyl)phenyl]-piperidin-1-yl]-ethoxy]-ethyl]-benzenesulfonic acid amide] |  |  | 97% | 92%
8 | Cc1cccc(Cl)c1S(=O)(=O)N(CCOCC(=O)N1CCC(CCCN2CCCC2)(c2cccc(F)c2)CC1)C1CC1 [Example 79, 2-Chloro-N-cyclopropyl-N-[2-[2-[4-(3-fluorophenyl)-4-(3-pyrrolidin-1-yl-propyl)-piperidin-1-yl]-2-oxo-ethoxy]-ethyl]-6-methyl-benzenesulfonic acid amide] |  |  | 100% | 103%
9 | COc1cc(C)c(S(=O)(=O)N2CCCC[C@H]2COCC(=O)N2CCC(CCCN3CCCC3)(c3cccnc3)CC2)c(C)c1 [Example 81, 2-[[(2S)-1-[(4-Methoxy-2,6-dimethyl-phenyl)sulfonyl]-piperidin-2-yl]-methoxy]-1-[4-pyridin-3-yl-4-(3-pyrrolidin-1-yl-propyl)-piperidin-1-yl]-ethanone hydrochloride] |  |  | 100% | 102%

Results, then the molecule that gave them:

Row | B1R antagonism, human [10 μM] % inhibition [1] | B1R antagonism, rat [10 μM] % inhibition [2] | inhibition at 10 µM [1] | inhibition at 10 µM [2] | Compound
10 | 100% | 102% |  |  | O=C(COCC1CCCCN1S(=O)(=O)c1ccccc1C(F)(F)F)N1CCC(CCCN2CCCC2)(c2cccnc2)CC1 (stereo not shown) [Example 42, 1-[4-Pyridin-3-yl-4-(3-pyrrolidin-1-yl-propyl)-piperidin-1-yl]-2-[[1-[[2-(trifluoromethyl)-phenyl]sulfonyl]-piperidin-2-yl]-methoxy]-ethanone]
11 |  |  | 100% | 102% | COc1cc(C)c(S(=O)(=O)N2c3ccccc3CCC2COCC(=O)N2CCC(CCCN3CCCC3)(c3cccnc3)CC2)c(C)c1 (stereo not shown) [Example 53, 2-[[1-[(4-Methoxy-2,6-dimethyl-phenyl)sulfonyl]-1,2,3,4-tetrahydro-quinolin-2-yl]-methoxy]-1-[4-pyridin-3-yl-4-(3-pyrrolidin-1-yl-propyl)-piperidin-1-yl]-ethanone]
12 |  |  | 100% | 104% | COc1cc(C)c(S(=O)(=O)N2CCCCC2CCCC(=O)N2CCC(CCCN3CCCC3)(c3cccnc3)CC2)c(C)c1 (stereo not shown) [Example 60, 4-[1-[(4-Methoxy-2,6-dimethyl-phenyl)sulfonyl]-piperidin-2-yl]-1-[4-pyridin-3-yl-4-(3-pyrrolidin-1-yl-propyl)-piperidin-1-yl]-butan-1-one]
13 | 100% | 103% |  |  | COc1cc(C)c(S(=O)(=O)N2CCCCC2CCCC(=O)N2CCC(CCCN3CCCC3)(c3cccnc3)CC2)c(C)c1 (stereo not shown) [Example 61, 4-[1-[(4-Methoxy-2,6-dimethyl-phenyl)sulfonyl]-piperidin-2-yl]-1-[4-pyridin-3-yl-4-(3-pyrrolidin-1-yl-propyl)-piperidin-1-yl]-butan-1-one]
14 |  |  | 100% | 102% | COc1cc(C)c(S(=O)(=O)N2c3ccccc3OCC2COCC(=O)N2CCC(CCCN3CCCC3)(c3cccnc3)CC2)c(C)c1 (stereo not shown) [Example 67, 2-[[4-[(4-Methoxy-2,6-dimethyl-phenyl)sulfonyl]-3,4-dihydro-2H-[1,4]benzoxazin-3-yl]-methoxy]-1-[4-pyridin-3-yl-4-(3-pyrrolidin-1-yl-propyl)-piperidin-1-yl]-ethanone]
15 |  |  | 100% | 103% | COc1cc(C)c(S(=O)(=O)N(CCOCC(=O)N2CCC(CCCN3CCCC3)(c3cccnc3)CC2)Cc2cnc3ccccc3c2)c(C)c1 [Example 71, 4-Methoxy-2,6-Dimethyl-N-[2-[2-oxo-2-[4-pyridin-3-yl-4-(3-pyrrolidin-1-yl-propyl)-piperidin-1-yl]-ethoxy]-ethyl]-N-(quinolin-3-yl-methyl)-benzenesulfonic acid amide]
16 |  | 93% | 100% |  | O=C(COCC1COc2ccccc2N1S(=O)(=O)c1ccccc1C(F)(F)F)N1CCC(CCCN2CCCC2)(c2cccnc2)CC1 (stereo not shown) [Example 74, 1-[4-Pyridin-3-yl-4-(3-pyrrolidin-1-yl-propyl)-piperidin-1-yl]-2-[[4-[[2-(trifluoromethyl)-phenyl]sulfonyl]-3,4-dihydro-2H-[1,4]benzoxazin-3-yl]-methoxy]-ethanone]
17 |  |  | 100% | 104% | COc1cc(C)c(S(=O)(=O)N2CCCC[C@H]2COCC(=O)N2CCC(CCN3CCCC3)(c3cccnc3)CC2)c(C)c1 [Example 80, 2-[[(2S)-1-[(4-Methoxy-2,6-dimethyl-phenyl)sulfonyl]-piperidin-2-yl]-methoxy]-1-[4-pyridin-3-yl-4-(2-pyrrolidin-1-yl-ethyl)-piperidin-1-yl]-ethanone hydrochloride]
